Reference: patent US20090238808A1, “Process for the identification of novel enzyme interacting compounds” (priority 2005, published 2009)
Each block holds one molecule with its values, some of them ahead of it.

Legend:
Experiment in all cases: Kinobeads elution with test compound, mouse brain lysate, MS
Format in all cases: binding
Settings in all cases: kinase released from kinobeads by specific elution
[1] = molecular target: AMPKa1 (Mus musculus, UniProt Q5EG47)
Procedure, shortened: (§1)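 Read-out is mass-spectrometric identification of proteins released from kinobeads by non-modified test compound. Beads had captured mouse brain lysate proteins under near-physiological conditions; after washing, elution used 1.0 mM compound for 30 min at 4° C against a 2% DMSO or DMF control.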

[2] = molecular target: T1, NEK9 (Mus musculus, UniProt Q8K1R7)
T1 construct: from tissue; host or cells: mouse brain
Procedure, shortened: as §1

[3] = molecular target: CDKL5 (Mus musculus, UniProt Q3UTQ8)
Text: This example illustrates competitive elution of proteins bound to kinobeads with non-modified test compounds (see particularly the fourth aspect of the invention). […] The kinobeads were contacted with mouse brain lysate under conditions that allow the binding of the proteins in the lysate to the ligands. The binding conditions were close to physiological by choosing suitable buffer conditions preserving the function of the proteins. After removing non-captured proteins through a gentle washing procedure the bound proteins were contacted with a test compound for protein elution. […] 1. […] Transfer 20 μl the 1:3 slurry into MoBiTech columns (equivalent to 5 μl of beads). 3. Place the column into an Eppendorf tube and centrifuge it for 15 seconds at 800 rpm at 4° C. Close columns with lower lid. 4. Add 10 μl elution buffer containing 1.0 mM of the test compound (concentration ranges of 0.1 to 1.0 mM are suitable). […] Close column with upper lid. 5. Incubate for 30 minutes at 4° C. in an Eppendorf incubator at 700 rpm. 6. Open column (first top, then bottom), put column back into siliconized tube ([…] Microcentrifuge Tubes, cat. no 11270, Sorenson BioScience, Inc.). To harvest the eluate centrifuge 2 minutes at 2.000 rpm in table top centrifuge at room temperature. The typical volume of the eluate is approximately 15 μl. 7. […]

[4] = system: BRAFps
Procedure, shortened: as §1

[5] = molecular target: T2, PKCg (Mus musculus, UniProt P63318)
T2 construct: from tissue; host or cells: mouse brain
Procedure, shortened: as §1

[6] = molecular target: T3, QSK (Mus musculus, UniProt Q6P4S6)
T3 construct: from tissue; host or cells: mouse brain
Procedure, shortened: as §1

[7] = molecular target: ALK2 (Mus musculus, UniProt P37172)
Procedure, shortened: as §1

Sequence of ALK2 (P37172 21-509): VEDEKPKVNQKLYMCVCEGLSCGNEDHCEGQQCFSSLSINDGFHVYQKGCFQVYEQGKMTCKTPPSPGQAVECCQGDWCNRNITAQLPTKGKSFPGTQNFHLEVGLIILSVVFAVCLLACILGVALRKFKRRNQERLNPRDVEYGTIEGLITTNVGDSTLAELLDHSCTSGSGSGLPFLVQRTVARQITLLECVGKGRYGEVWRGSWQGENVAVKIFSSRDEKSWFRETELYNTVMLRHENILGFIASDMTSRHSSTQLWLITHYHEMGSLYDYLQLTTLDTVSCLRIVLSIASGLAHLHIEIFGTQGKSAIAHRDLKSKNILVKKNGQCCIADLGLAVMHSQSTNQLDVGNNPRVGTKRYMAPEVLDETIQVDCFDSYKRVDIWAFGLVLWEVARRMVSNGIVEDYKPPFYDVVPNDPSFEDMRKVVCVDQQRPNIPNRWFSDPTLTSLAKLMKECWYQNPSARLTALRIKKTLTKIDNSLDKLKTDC
T3 sequence (Q6P4S6 whole entry): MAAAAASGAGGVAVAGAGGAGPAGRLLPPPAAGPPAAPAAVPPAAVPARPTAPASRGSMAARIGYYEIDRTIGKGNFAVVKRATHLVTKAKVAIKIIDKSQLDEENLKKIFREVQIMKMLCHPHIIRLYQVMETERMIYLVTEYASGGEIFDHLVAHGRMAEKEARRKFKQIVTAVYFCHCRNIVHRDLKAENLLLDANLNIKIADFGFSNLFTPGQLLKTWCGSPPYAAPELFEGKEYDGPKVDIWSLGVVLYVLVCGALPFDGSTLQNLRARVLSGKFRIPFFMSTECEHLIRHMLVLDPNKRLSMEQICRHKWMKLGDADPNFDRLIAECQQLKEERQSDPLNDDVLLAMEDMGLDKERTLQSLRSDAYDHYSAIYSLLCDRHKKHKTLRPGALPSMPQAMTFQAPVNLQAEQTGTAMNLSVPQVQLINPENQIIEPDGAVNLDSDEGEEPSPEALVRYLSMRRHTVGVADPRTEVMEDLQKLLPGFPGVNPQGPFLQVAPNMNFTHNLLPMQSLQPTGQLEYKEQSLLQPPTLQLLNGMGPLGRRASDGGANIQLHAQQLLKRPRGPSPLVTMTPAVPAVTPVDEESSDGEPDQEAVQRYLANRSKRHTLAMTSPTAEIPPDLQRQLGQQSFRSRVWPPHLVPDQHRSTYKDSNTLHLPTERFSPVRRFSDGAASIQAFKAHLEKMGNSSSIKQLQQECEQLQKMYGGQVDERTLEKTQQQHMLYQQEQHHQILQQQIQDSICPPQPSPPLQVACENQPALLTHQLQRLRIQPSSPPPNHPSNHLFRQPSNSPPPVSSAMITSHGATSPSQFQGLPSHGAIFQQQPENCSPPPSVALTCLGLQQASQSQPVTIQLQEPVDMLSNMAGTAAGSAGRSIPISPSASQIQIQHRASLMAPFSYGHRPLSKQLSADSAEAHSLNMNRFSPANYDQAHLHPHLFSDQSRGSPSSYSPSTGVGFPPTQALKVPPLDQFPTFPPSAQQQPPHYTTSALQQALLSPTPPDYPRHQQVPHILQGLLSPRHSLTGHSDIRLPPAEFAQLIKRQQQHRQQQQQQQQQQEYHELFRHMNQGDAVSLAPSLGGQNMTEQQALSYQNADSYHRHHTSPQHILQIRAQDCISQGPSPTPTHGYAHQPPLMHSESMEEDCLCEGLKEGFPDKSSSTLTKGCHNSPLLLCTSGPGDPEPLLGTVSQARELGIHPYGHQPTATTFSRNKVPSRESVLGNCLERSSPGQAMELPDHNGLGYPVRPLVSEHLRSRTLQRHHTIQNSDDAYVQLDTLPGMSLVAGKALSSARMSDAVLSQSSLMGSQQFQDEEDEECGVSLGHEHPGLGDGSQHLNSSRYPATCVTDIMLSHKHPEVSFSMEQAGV
T1 sequence (Q8K1R7 whole entry): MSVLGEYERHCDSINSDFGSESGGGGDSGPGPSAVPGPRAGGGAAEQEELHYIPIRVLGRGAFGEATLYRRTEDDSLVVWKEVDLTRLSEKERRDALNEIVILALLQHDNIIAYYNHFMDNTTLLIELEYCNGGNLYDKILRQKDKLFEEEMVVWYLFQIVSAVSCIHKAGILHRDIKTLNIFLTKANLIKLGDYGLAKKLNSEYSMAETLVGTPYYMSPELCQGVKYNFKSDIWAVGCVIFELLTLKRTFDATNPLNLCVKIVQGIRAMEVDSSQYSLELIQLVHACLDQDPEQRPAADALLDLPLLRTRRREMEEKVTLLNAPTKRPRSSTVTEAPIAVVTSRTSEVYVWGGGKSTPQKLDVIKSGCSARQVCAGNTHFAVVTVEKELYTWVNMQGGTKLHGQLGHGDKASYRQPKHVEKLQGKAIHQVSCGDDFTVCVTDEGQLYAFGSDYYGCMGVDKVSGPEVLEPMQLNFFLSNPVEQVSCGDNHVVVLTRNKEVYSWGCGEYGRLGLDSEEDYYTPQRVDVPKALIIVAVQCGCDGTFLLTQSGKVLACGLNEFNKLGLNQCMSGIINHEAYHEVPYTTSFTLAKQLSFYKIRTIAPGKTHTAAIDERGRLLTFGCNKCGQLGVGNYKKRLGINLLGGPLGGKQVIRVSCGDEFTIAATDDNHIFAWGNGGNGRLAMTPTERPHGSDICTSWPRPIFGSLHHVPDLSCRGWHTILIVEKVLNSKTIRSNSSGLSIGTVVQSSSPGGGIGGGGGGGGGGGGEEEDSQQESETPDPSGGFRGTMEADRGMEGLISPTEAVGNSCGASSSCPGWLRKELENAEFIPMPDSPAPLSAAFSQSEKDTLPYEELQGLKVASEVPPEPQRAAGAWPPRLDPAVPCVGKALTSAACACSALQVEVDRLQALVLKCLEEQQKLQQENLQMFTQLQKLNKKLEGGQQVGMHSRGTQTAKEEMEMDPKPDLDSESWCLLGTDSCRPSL
Sequence of CDKL5 (Q3UTQ8 whole entry): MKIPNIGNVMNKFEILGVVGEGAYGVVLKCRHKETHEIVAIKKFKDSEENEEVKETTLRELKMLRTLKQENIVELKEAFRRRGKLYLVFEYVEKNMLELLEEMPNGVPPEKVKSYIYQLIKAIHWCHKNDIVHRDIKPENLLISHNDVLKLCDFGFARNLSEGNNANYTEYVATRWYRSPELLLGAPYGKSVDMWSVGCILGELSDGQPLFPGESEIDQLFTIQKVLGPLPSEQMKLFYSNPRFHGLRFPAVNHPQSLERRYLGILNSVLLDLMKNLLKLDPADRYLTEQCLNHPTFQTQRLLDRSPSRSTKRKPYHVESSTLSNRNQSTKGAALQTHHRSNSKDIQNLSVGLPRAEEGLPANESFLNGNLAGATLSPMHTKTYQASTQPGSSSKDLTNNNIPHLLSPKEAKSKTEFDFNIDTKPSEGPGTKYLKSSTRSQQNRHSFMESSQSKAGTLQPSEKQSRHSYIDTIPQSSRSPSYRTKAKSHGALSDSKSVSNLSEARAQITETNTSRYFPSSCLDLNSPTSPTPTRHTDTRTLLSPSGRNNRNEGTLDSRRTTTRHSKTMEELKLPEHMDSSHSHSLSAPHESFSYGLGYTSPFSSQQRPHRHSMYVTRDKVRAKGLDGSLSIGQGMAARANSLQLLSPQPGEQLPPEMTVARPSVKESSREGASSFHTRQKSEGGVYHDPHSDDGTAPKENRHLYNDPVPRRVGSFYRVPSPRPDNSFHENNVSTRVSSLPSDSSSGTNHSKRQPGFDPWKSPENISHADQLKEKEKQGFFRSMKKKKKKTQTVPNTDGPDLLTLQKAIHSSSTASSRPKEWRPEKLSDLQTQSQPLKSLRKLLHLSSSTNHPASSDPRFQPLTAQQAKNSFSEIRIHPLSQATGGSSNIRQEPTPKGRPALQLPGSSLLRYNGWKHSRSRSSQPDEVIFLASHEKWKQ

- mass spectrometry score, AMPKa1 [1]: 64
- number of identified peptides, AMPKa1 [1]: 2
- mass spectrometry score, NEK9 [2]: 61
- number of identified peptides, NEK9 [2]: 2
SMILES: NCc1ccc(Nc2ncc(F)c(Nc3ccccc3)n2)cc1 [CZC00008004]

- mass spectrometry score, CDKL5 [3]: 48
- number of identified peptides, CDKL5 [3]: 1
SMILES: CC(C)[C@H](CO)Nc1nc(Nc2ccc(C(=O)O)c(Cl)c2)c2ncn(C(C)C)c2n1 [Purvalanol B, reference compound]

SMILES: Cn1c(=O)c(-c2c(Cl)cccc2Cl)cc2cnc(Nc3ccc(CN)cc3)cc21 [CZC7324]
- mass spectrometry score, BRAFps [4]: 70
- number of identified peptides, BRAFps [4]: 4

SMILES: CNC1CC2OC(C)(C1OC)n1c3ccccc3c3c4c(c5c6ccccc6n2c5c31)C(=O)NC4 (centres unmarked) [CZC9280]
- mass spectrometry score, PKCg [5]: 53
- number of identified peptides, PKCg [5]: 1

- mass spectrometry score, QSK [6]: 153
- number of identified peptides, QSK [6]: 7
- mass spectrometry score, ALK2 [7]: 65
- number of identified peptides, ALK2 [7]: 2
SMILES: CCCCCCCCCCCCOS(=O)(=O)[O-].[Na+] [SDS]
